Measurements from paper PMC10167921 (Biochemical pharmacology, 2021).
In brackets after ≈: the same amount, converted by molar mass. Several values for one entry are separate records, joined by “and”; a condition that tells them apart may be missing. Equal values may be shown once. Where a SMILES comes first, the peptide text is derived from it. Bridges are numbered along the chain shown (N, C = ends). Where no end group is shown, it is not given here. [ ]: non-standard residue; d: D form. The star is where a group is joined. X1 = CC[C@H](C)CCCCC(=O)*; Dab = NCC[C@H](N)C(=O)O

Legend:
E.coli ATCC 259922 = experiment: Antimicrobial assay; format: cell-based, Escherichia coli; conditions: CaMHB, 5 × 10^5 CFU mL^−1, 37 °C, 20 h, visual, duplicate
B. subtilis ATCC 6051 = experiment: microbe, parasite or virus in culture; format: cell-based, Bacillus subtilis; conditions: for Minimum inhibitory concentration: B. subtilis ATCC 6051, CaMHB, 5 × 10^5 CFU mL^−1, 37 °C, 20 h, visual, duplicate
S. aureus ATCC 43300 = experiment: microbe, parasite or virus in culture; format: cell-based, Staphylococcus aureus; conditions: for Minimum inhibitory concentration: S. aureus ATCC 43300, CaMHB, 5 × 10^5 CFU mL^−1, 37 °C, 20 h, visual, duplicate
human red blood cells = experiment: Hemolysis assay; format: cell-based
HEK293 cells = experiment: Cytotoxicity assay; format: cell-based; conditions: HEK293, 24 h at 37 °C, resazurin fluorescence; two independent experiments of duplicate assays (n = 2)
[1] = test system: Gram negative and Gram-positive bacterial pathogens; experiment: Antimicrobial assay, summary over the bacterial panel; format: cell-based; conditions: range over both strains

Compound | Minimum inhibitory concentration (E.coli ATCC 259922) | MIC (B. subtilis ATCC 6051; Bacillus subtilis, ATCC6051, 20 h, read-out: Minimum inhibitory concentration) | MIC (S. aureus ATCC 43300; Staphylococcus aureus, ATCC43300, 20 h, read-out: Minimum inhibitory concentration) | Minimum inhibitory concentration (B. subtilis ATCC 6051) | Hemolysis at fixed concentration (human red blood cells; 100 μM peptide) | Hemolysis at fixed concentration (human red blood cells; 300 μM peptide) | Minimum inhibitory concentration (S. aureus ATCC 43300) | Cytotoxicity (CC50), 50% death of HEK293 cells (HEK293 cells) | MIC against Gram-positive bacteria (Staphylococcus aureus and B. subtilis) [1]
CC[C@H](C)CCCCC(=O)N[C@@H](CCN)C(=O)N[C@H](C(=O)N[C@@H](CCN)C(=O)N[C@H]1CCNC(=O)[C@H]([C@@H](C)O)NC(=O)[C@H](CCN)NC(=O)[C@H](CCN)NC(=O)[C@H](CC(C)C)NC(=O)[C@@H](CC(C)C)NC(=O)[C@H](CCN)NC1=O)[C@@H](C)O [Colistin, colistin, reference compound] (X1-[Dab]T[Dab][Dab][Dab][dL]L[Dab][Dab]T; lactam 4-C (inferred); N-terminus assumed) | 0.02 to 0.11 µM |  |  |  |  |  |  |  | 
CN[C@H](CC(C)C)C(=O)N[C@H]1C(=O)N[C@@H](CC(N)=O)C(=O)N[C@H]2C(=O)N[C@H]3C(=O)N[C@H](C(=O)N[C@H](C(=O)O)c4cc(O)cc(O)c4-c4cc3ccc4O)[C@H](O)c3ccc(c(Cl)c3)Oc3cc2cc(c3O[C@@H]2O[C@H](CO)[C@@H](O)[C@H](O)[C@H]2O[C@H]2C[C@](C)(N)[C@H](O)[C@H](C)O2)Oc2ccc(cc2Cl)[C@H]1O [Vancomycin, vancomycin, reference compound] |  | 0.17 to 0.35 µM (≈ 0.246 to 0.507 µg/mL) | 0.69 to 1.38 µM (≈ 1 to 2 µg/mL) |  |  |  |  |  | 
AGTKEWLNKAKDFIKEKGLGMLSAAANAALN [Nc3b] | >40 µM |  |  | >40 µM | no hemolysis | no hemolysis | >40 µM |  | 
FLGALLKIGAKLLPSVVGLFKKKQQ [Na1b] | 5.9 to 11.8 µM |  |  | 0.18 to 2.9 µM |  |  | 0.3 to 5.9 µM | 4.5 to 5.9 µM | 
FVKELWDKVKKMGSAAWSAAKGAFA [Nc2a] | 11.7 to 46.9 µM |  |  | 5.9 to 11.8 µM | no hemolysis |  | >40 µM | > 40 µM and 48.2 to 56.9 µM | 
FWGAAAKMLGKALPGLISMFQKN [Nc1a] | 25.8 to 51.6 µM |  |  | 1.48 to 5.9 µM |  |  | 2.9 to 5.9 µM | 12.6 to 13.5 µM | 1.48 to 5.9 µM
GWKDWLNKAKDFIKEKGPEILRAAANAAIN [Nc3a] | 2.3 to 4.7 µM |  |  | 1.48 to 2.9 µM | no hemolysis |  | 23.7 to 47.4 µM |  | 
